Where a name gives a salt, the structure may show the parent alone.

The target in the experiment is human Mnk2a (Homo sapiens (Human), UniProt Q9HBH9). Kind of experiment: Mnk2a in vitro kinase assay (indirect competitive fluorescence polarization). The format is biochemical. As to conditions: pre-activated GST-Mnk2a 2.5 nM, 20 μM ATP, 30 μM substrate peptide; read-out: MNK2 IC50. The procedure: Inhibitory potency of compounds against Mnk1, Mnk2a and other kinases was assessed with assays based on a format known to those skilled in the art as the indirect (competitive) fluorescence polarization. The assay detection system comprises a small fluorophore-labeled phospho-peptide (termed ligand) bound to a phospho-specific antibody. The product generated by the kinase reaction competes with the ligand for antibody binding. Based on the larger molecular volume of the bound ligand, which results in a lower rotation rate in solution, its emitted light has a higher degree of polarization than the one from the free ligand.
Sequence of human Mnk2a (Q9HBH9 whole entry): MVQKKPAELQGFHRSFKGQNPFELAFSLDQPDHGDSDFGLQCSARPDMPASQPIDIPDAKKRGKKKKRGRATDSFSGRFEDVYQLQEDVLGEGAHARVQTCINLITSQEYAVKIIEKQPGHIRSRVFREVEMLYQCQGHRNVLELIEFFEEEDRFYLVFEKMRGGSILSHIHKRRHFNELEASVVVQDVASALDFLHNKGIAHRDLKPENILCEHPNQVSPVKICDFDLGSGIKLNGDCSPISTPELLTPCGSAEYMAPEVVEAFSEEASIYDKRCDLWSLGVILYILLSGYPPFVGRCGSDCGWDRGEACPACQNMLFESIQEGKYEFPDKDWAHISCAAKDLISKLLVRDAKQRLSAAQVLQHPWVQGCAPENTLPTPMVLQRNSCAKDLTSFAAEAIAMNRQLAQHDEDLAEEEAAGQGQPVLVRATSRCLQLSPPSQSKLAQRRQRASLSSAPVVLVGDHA
In brief, the open reading frames of human Mnk1 and Mnk2a were amplified from cDNA using the forward/reverse primer pairs
(utilized restriction sites underlined), respectively, and cloned into the BamHI and SalI sites of the vector pGEX-4T1 (Amersham, Sweden, cat. no. 27-4580-01). These constructs allow prokaryotic expression of Mnk1 or Mnk2a as fusion protein with a N-terminal glutathione S-transferase (GST) tag, referred to as GST-Mnk1 or GST-Mnk2a. The following expression and purification procedure was identical for GST-Mnk1 and GST-Mnk2a, referring in general to GST-Mnk, when not distinguishing between the two isoforms. Expression of GST-Mnk was in E. coli BL21 (Merck Biosciences, Germany, cat. no. 69449). Cells were grown in LB-Bouillon (Merck, Germany, cat. no. 1.10285) supplemented with 100 μg/ml ampicillin (Sigma, Germany, cat. no. A9518) at 37° C. […] Cells harvested by centrifugation were resuspended in 10 ml lysis buffer (50 mM tris(hydroxymethyl)aminomethane hydrochloride (Tris/HCl, Sigma, Germany, cat. no. T5941) pH 7.5, 300 mM sodium chloride (NaCl, Sigma, Germany, cat. no. S7653), 5% (w/v) glycerol (Sigma, Germany, cat. no. G5516), 3 mM DTT dithiotreitol (DTT, Sigma, Germany, cat. no. D9779)) per gram wet weight cell pellet. Lysates were prepared by disruption of cells with a sonifier and subsequent clearing by centrifugation at 38000 g for 45 min at 4° C.
The lysate was applied to a GSTPrep FF 16/10 column (Amersham, Sweden, cat. no. 17-5234-01) equilibrated with lysis buffer. Removal of unbound material was with 3 column volumes (CV) lysis buffer. Elution was with 2 CV of elution buffer (50 mM Tris/HCl pH 7.5, 300 mM NaCl, 5% (w/v) glycerol, 20 mM glutathione (Sigma, Germany, cat. no. G4251)). Peak fractions were pooled and the protein transferred into storage buffer (50 mM Tris/HCl pH 7.5, 200 mM NaCl, 0.1 mM ethylene glycol[…] bis(2-aminoethylether)-N,N,N′,N′-tetraacetic acid (EGTA, Aldrich, Germany, cat. no. 23, 453-2), 1 mM DTT, 10% (w/v) glycerol, 0.5 M sucrose (Sigma, Germany, cat. no. S0389) by gel filtration on a PD10 desalting column (Amersham, Sweden, cat. no. 17-0851-01). Aliquots were shock frozen in liquid nitrogen and stored at −80° C.
Activation of Mnk1 and Mnk2a was at a concentration of 2.5 μM of either purified GST-Mnk1 or GST-Mnk2a by incubation with 150 nM pre-activated NHis-ERK2 (see ERK2 assay for preparation) and 50 μM adenosine triphosphate (ATP, Sigma, cat. no. A2699) in a buffer comprising 20 mM N-(2-hydroxyethyl)piperazine-N′-(2-ethanesulfonic acid) (HEPES, Fluka, Germany, cat. no 54459)/potassium hydroxide (KOH, Roth, Germany, cat. no 6751.1) pH 7.4, 10 mM magnesium chloride (MgCl2, Sigma, Germany, cat. no. M2670), 0.25 mM DTT, 0.05% (w/v) polyoxyethylene 20 stearylether (Brij 78, Sigma, Germany, cat. no. P4019) (HMDB buffer) for 45 min at 30° C. After the incubation, the preparation was aliquoted into single-use samples, shock frozen in liquid nitrogen, stored at −80° C. and utilized for Mnk1 or Mnk2a kinase assays as detailed below.
The serine residue phosphorylated by Mnk kinases is underlined.
Background: In fluorescence polarisation assays a small probe gives low polarisation when free and higher when bound to something large.
For the compound `Cc1c(C(=O)NCCCN(C)C)sc2ncnc(Nc3ccc(F)cc3OC(C)CC(C)(C)O)c12` (stereo not drawn) [Compound 20-3, N-(3-(Dimethylamino)propyl)-4-(4-fluoro-2-(4-hydroxy-4-methylpentan-2-yloxy)phenylamino)-5-methyl-thieno[2,3-d]pyrimidine-6-carboxamide trifluoroacetate], the IC50 came out at 59 nM. With `Cc1c(C(=O)O)sc2ncnc(Nc3cccnc3OC(C)C(F)(F)F)c12` (stereo not drawn) [Compound 21-2, 5-Methyl-4-(2-(1,1,1-trifluoropropan-2-yloxy)pyridin-3-ylamino)thieno[2,3-d]pyrimidine-6-carboxylic acid] the figure was 15 nM; with `Cc1c(C(N)=O)sc2ncnc(Nc3cccnc3OC(C)C(F)(F)F)c12` (stereo not drawn) [Compound 21-3, 5-Methyl-4-(2-(1,1,1-trifluoropropan-2-yloxy)pyridin-3-ylamino)thieno[2,3-d]pyrimidine-6-carboxamide], 11 nM. Take `Cc1c(C(=O)NC2CCN(C)CC2)sc2ncnc(Nc3cccnc3OC(C)C(F)(F)F)c12` (stereo not drawn) [Compound 21-4, 5-methyl-N-(1-methylpiperidin-4-yl)-4-(2-(1,1,1-trifluoropropan-2-yloxy)pyridin-3-ylamino)thieno[2,3-d]pyrrimidine-6-carboxamide]: the IC50 turned out to be 54 nM. Consider `Cc1c(C(=O)NCCCN(C)C)sc2ncnc(Nc3cccnc3OC(C)C(F)(F)F)c12` (stereo not drawn) [Compound 21-5, N-(3-(dimethyl-amino)propyl)-5-methyl-4-(2-(1,1,1-trifluoro-propan-2-yloxy)-pyridin-3-yl-amino)thieno[2,3-d]pyrimidine-6-carboxamide], for which the IC50 worked out at 42 nM. For the compound `CNC(=O)c1sc2ncnc(Nc3cccnc3OC(C)C(F)(F)F)c2c1C` (stereo not drawn) [Compound 21-6, N-Methyl-5-methyl-4-(2-(1,1,1-trifluoro-propan-2-yloxy)-pyridin-3-yl-amino)thieno[2,3-d]pyrimidine-6-N-methylcarboxamide], the IC50 turned out to be 12 nM. For the compound `Cc1c(C(=O)NCC#CCN(C)C)sc2ncnc(Nc3cccnc3OC(C)C(F)(F)F)c12` (stereo not drawn) [Compound 21-7, 5-Methyl-4-[2-(2,2,2-trifluoro-1-methyl-ethoxy)-pyridin-3-ylamino]-thieno[2,3-d]pyrimidine-6-carboxylic acid (4-dimethylamino-but-2-ynyl)-amide], the IC50 turned out to be 24 nM.

Turning to `Cc1c(C(=O)NCCO)sc2ncnc(Nc3cccnc3OC(C)C(F)(F)F)c12` (stereo not drawn) [Compound 21-8, 5-Methyl-4-[2-(2,2,2-trifluoro-1-methyl-ethoxy)-pyridin-3-ylamino]-thieno[2,3-d]pyrimidine-6-carboxylic acid (4-hydroxy-ethyl)-amide], the half-inhibitory concentration (IC50) amounted to 20 nM. For `CCOCC(COCC)Oc1cc(F)ccc1Nc1ncnc2sc(C(N)=O)c(C)c12` [Compound 22-3, 4-(2-(1,3-Diethoxypropan-2-yloxy)-4-fluorophenylamino)-5-methyl-thieno[2,3-d]pyrimidine-6-carboxamide] the value was 296 nM; for `COC(=O)c1sc2ncnc(Nc3ccc(F)cc3OC(CF)CF)c2c1C` [Compound 23-1, Methyl 4-(2-(1,3-difluoropropan-2-yloxy)-4-fluorophenylamino)-5-methyl-thieno[2,3-d]pyrimidine-6-carboxylate], 78 nM.

As for `Cc1c(C(=O)O)sc2ncnc(Nc3ccc(F)cc3OC(CF)CF)c12` [Compound 23-2, 4-(2-(1,3-Difluoropropan-2-yloxy)-4-fluorophenylamino)-5-methyl-thieno[2,3-d]pyrimidine-6-carboxylic acid], the half-inhibitory concentration (IC50) came out at 6 nM. With `Cc1c(C(N)=O)sc2ncnc(Nc3ccc(F)cc3OC(CF)CF)c12` [Compound 23-3, 4-(2-(1,3-Difluoropropan-2-yloxy)-4-fluorophenylamino)-5-methyl-thieno[2,3-d]pyrimidine-6-carboxamide] the figure was 4 nM; with `CNC(=O)c1sc2ncnc(Nc3ccc(F)cc3OC(CF)CF)c2c1C` [Compound 23-4, 4-(2-(1,3-difluoro-propan-2-yloxy)-4-fluorophenylamino)-N,5-dimethylthieno [2,3d]pyrimidine-6-carboxamide], 8 nM. Take `Cc1c(C(=O)N[C@@H]2C[C@H]2NC(=O)OC(C)(C)C)sc2ncnc(Nc3ccc(F)cc3OC(CF)CF)c12` [Compound 23-5, Tert-butyl (1R,2R)-2-(4-2(1,3-difluoro-propan-[2,3-d]pyrimidine-6-carboxamido)cyclopropyl carbamate]: the IC50 was 13 nM. Take `Cc1c(C(=O)NCCCN(C)C)sc2ncnc(Nc3ccc(F)cc3OC(CF)CF)c12` [Compound 23-6, 4-(2-(1,3-difluoro-propan-2-yloxy)-4-fluorophenylamino)-N-(3-(dimethylamino)-propyl)-5-methyl-thieno[2,3-d]-pyrimidine-6-carboxamide]: the IC50 was determined as 10 nM.

Regarding `Cc1c(C(=O)NCCN(C)C)sc2ncnc(Nc3ccc(F)cc3OC(CF)CF)c12` [Compound 23-7, 4-(2-(1,3-difluoro-propan-2-yloxy)-4-fluorophenylamino)-N-(2-(dimethylamino)-ethyl)-5-methylthieno-[2,3-d]-pyrimidine-6-carboxamide], the half-inhibitory concentration (IC50) was found to be 17 nM.

Take `Cc1c(C(=O)NCCO)sc2ncnc(Nc3ccc(F)cc3OC(CF)CF)c12` [Compound 23-8]: the IC50 was determined as 8 nM. For the compound `Cc1c(C(=O)NCC#CCN(C)C)sc2ncnc(Nc3ccc(F)cc3OC(CF)CF)c12` [Compound 23-9, 4-(2-(1,3-difluoro-propan-2-yloxy)-4-fluorophenylamino)-N-(4-(dimethylamino)-but-2ynyl)-5-methyl-thieno[2,3-d]pyrimidine-6-carboxamide], the IC50 was found to be 7 nM. Take `Cc1c(C(=O)NCCCN2CCCC2)sc2ncnc(Nc3ccc(F)cc3OC(CF)CF)c12` [Compound 23-10, 4-(2-(1,3-difluoro-propan-2-yloxy)-4-fluorophenylamino)-5-methyl-N-(3-(pyrrolidin-1-yl)propyl)thieno[2,3-d]pyrimidine-6-carboxamide]: the concentration for half-maximal inhibition (IC50) turned out to be 7 nM. For `Cc1c(C(=O)NS(C)(=O)=O)sc2ncnc(Nc3ccc(F)cc3OC(CF)CF)c12` [Compound 24, 4-(2-(1,3-Difluoropropan-2-yloxy)-4-fluorophenylamino)-5-methyl-N-(methylsulfonyl)thieno[2,3-d]pyrimidine-6-carboxamide], the IC50 was determined as 7 nM. As for `Cc1c(C(=O)NCCCN(C)C)sc2ncnc(Nc3ccc(F)cc3OCC3CCOCC3)c12` [Compound 26-3], the IC50 worked out at 790 nM. Take `Cc1c(C(=O)O)sc2ncnc(Nc3cccnc3OCC(C)F)c12` (stereo not drawn) [Compound 27-2, 4-(2-(2-Fluoropropoxy)pyridin-3-ylamino)-5-methyl-thieno[2,3-d]pyrimidine-6-carboxylic acid]: the IC50 amounted to 33 nM. With `Cc1c(C(=O)NCCO)sc2ncnc(Nc3cccnc3OCC(C)F)c12` (stereo not drawn) [Compound 27-3, 4-(2-(2-Fluoropropoxy)pyridin-3-ylamino)-N-(2-hydroxyethyl)-5-methyl-thieno[2,3-d]pyrimidine-6-carboxamide] the figure was 58 nM; with `Cc1c(C(=O)NCCCN(C)C)sc2ncnc(Nc3cccnc3OCC(C)F)c12` (stereo not drawn) [Compound 27-4, N-(3-(dimethylamino)-propyl)-4-(2-(2-fluoro-propoxy)pyridin-3-ylamino)-5-methyl-thieno[2,3-d]pyrimidine-6-carboxamide hydrochloride], 73 nM.

For orientation: IC50 means the concentration at which inhibition is half-maximal.

(Values after patent publication US8853193B2, “Thienopyrimidines containing a substituted alkyl group for pharmaceutical compositions” (Boehringer Ingelheim International GmbH, priority 2010, dated 2014).)
